Data on 41 molecules can be found in patent US10774064B2 (Cadent Therapeutics, Inc., priority 2016, dated 2020).

For this assay, the target named is T1, small-conductance Ca2+-activated K+ channels (SK channels, subtype 2) (Homo sapiens, UniProt Q9H2S1).
T1 construct: expressed in transfected cells; host or cells: HEK293
Nature of the assay: whole-cell patch-clamp of ionic current through SK2 channels in HEK293 cells (SC100). It counts as cell-based. The conditions noted are these: whole-cell patch-clamp, HEK293 cells expressing SK2 channels; concentration that increases the basal current by 100%. The essentials:
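SC100, the concentration doubling basal current (a 100% increase), was taken from SK2 currents recorded by whole-cell patch-clamp in SK2-expressing HEK293 cells.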

`CC(=O)c1cc(NC2CCC(F)(F)CC2)nc(-c2nc(C3CC3)cs2)n1` [IN11147-071-P1, 1-(2-(4-cyclopropylthiazol-2-yl)-6-((4,4-difluorocyclohexyl)amino)pyrimidin-4-yl) ethan-1-one]: the “SC100 (μM)” value is given as “+ (+ means >1 uM)”.

As for `COCc1cc(NC2CCC(F)(F)CC2)nc(-c2nc(C3CC3)cs2)n1` [IN11147-077-P1, 2-(4-cyclopropylthiazol-2-yl)-N-(4,4-difluorocyclohexyl)-6-(methoxymethyl)pyrimidin-4-amine], the “SC100 (μM)” value is “++ (++ means 200 nM-1000 nM)”. With `OCc1cc(NC2CCC(F)(F)CC2)nc(-c2nc(C3CC3)cs2)n1` [IN11147-082-P1, (2-(4-cyclopropylthiazol-2-yl)-6-((4,4-difluorocyclohexyl)amino)pyrimidin-4-yl) methanol] the entry was “++ (++ means 200 nM-1000 nM)”. With `COc1cnc(-c2nc(C3CC3)cs2)nc1NC1CCC(F)(F)CC1` [IN11147-096-P1, 2-(4-cyclopropylthiazol-2-yl)-N-(4,4-difluorocyclohexyl)-5-methoxypyrimidin-4-amine], the “SC100 (μM)” value is “+++ (+++ means <200 nM)”.

In the case of `FC1(F)CCC(Nc2cc(OCc3cnco3)nc(-n3ccc(C4CC4)n3)n2)CC1` [IN11166-020-P1], the “SC100 (μM)” value is reported as “++ (++ means 200 nM-1000 nM)”. With `FC1(F)CCC(Nc2cc(C3CC3)nc(-n3ccc(C4CC4)n3)n2)CC1` [IN11166-036-P1, 6-cyclopropyl-2-(3-cyclopropyl-1H-pyrazol-1-yl)-N-(4,4-difluorocyclohexyl)pyrimidin-4-amine], the “SC100 (μM)” value is “++ (++ means 200 nM-1000 nM)”. With `CC(=O)N1CC=C(c2cc(NC3CCC(F)(F)CC3)nc(-n3ccc(C4CC4)n3)n2)CC1` [IN11166-038-P1, 1-(4-(2-(3-cyclopropyl-1H-pyrazol-1-yl)-6-((4,4-difluorocyclohexyl)amino)pyrimidin-4-yl)-3,6-dihydropyridin-1(2H)-yl)ethan-1-one], the “SC100 (μM)” value was “+++ (+++ means <200 nM)”. Regarding `CC(=O)N1CCC(c2cc(NC3CCC(F)(F)CC3)nc(-n3ccc(C4CC4)n3)n2)CC1` [IN11166-042-P1, 1-(4-(2-(3-cyclopropyl-1H-pyrazol-1-yl)-6-((4,4-difluorocyclohexyl)amino)pyrimidin-4-yl)piperidin-1-yl)ethan-1-one], the “SC100 (μM)” value was “++ (++ means 200 nM-1000 nM)”.

In the case of `CC(C)(C)c1ccn(-c2nc(NC3CCC(F)(F)CC3)cc(N3CCOCC3)n2)n1` [IN11177-025-P1, 2-(3-(tert-butyl)-1H-pyrazol-1-yl)-N-(4,4-difluorocyclohexyl)-6-morpholinopyrimidin-4-amine], the “SC100 (μM)” value is on record as “+ (+ means >1 uM)”. As to `Cc1cc(NC2CCC(F)(F)CC2)nc(-n2ccc(C(C)(C)C)n2)n1` [IN11177-029-P1], the “SC100 (μM)” value was “++ (++ means 200 nM-1000 nM)”. As for `Cc1ccn(-c2cc(OCc3ncco3)cc(NC3CCC(F)(F)CC3)n2)n1` [IN11177-043-P1], the “SC100 (μM)” value is on record as “++ (++ means 200 nM-1000 nM)”.

Turning to `Cc1ccn(-c2nc(NC3CCC(F)(F)CC3)cc(N3CCN(C)C(=O)C3)n2)n1` [IN11177-049-P1], the “SC100 (μM)” value is “++ (++ means 200 nM-1000 nM)”. Take `Cc1ccn(-c2cc(OCc3cnco3)cc(NC3CCC(F)(F)CC3)n2)n1` [IN11177-056-P1]: the “SC100 (μM)” value is recorded as “+++ (+++ means <200 nM)”. Take `Cc1csc(-c2nc(NC3CCC(F)(F)CC3)cc(C(C)C)n2)n1` [IN11177-064-P1, N-(4,4-difluorocyclohexyl)-6-isopropyl-2-(4-methylthiazol-2-yl)pyrimidin-4-amine]: the “SC100 (μM)” value was “++ (++ means 200 nM-1000 nM)”. On to `N#Cc1ccn(-c2nc(NC3CCC(F)(F)CC3)cc(N3CCOCC3)n2)n1` [IN11177-068-P1], for which the “SC100 (μM)” value is recorded as “+ (+ means >1 uM)”. In the case of `Cc1csc(-c2nc(NC3CCC(F)(F)CC3)cc(OCC#N)n2)n1` [IN11196-007-P1, 2-((6-((4,4-difluorocyclohexyl)amino)-2-(4-methylthiazol-2-yl)pyrimidin-4-yl)oxy)acetonitrile], the “SC100 (μM)” value was “++ (++ means 200 nM-1000 nM)”.

For the molecule `Cc1csc(-c2nc(NC3CCC(F)(F)CC3)cc(=O)n2CC#N)n1` [IN11196-007-P2, 2-(4-((4,4-difluorocyclohexyl)amino)-2-(4-methylthiazol-2-yl)-6-oxopyrimidin-1(6H)-yl)acetonitrile], the “SC100 (μM)” value is “+ (+ means >1 uM)”.

Consider `COC(C)c1cc(NC2CCC(F)(F)CC2)nc(-n2ccc(C3CC3)n2)n1` (centres unmarked) [IN11196-026-P1, 2-(3-cyclopropyl-1H-pyrazol-1-yl)-N-(4,4-difluorocyclohexyl)-6-(1-methoxyethyl)pyrimidin-4-amine], for which the “SC100 (μM)” value is reported as “+ (+ means >1 uM)”. In the case of `[2H]C1([2H])OC([2H])([2H])C([2H])([2H])N(c2cc(NC3CCC(F)(F)CC3)nc(-n3ccc(C)n3)n2)C1([2H])[2H]` [IN11196-039-P1], the “SC100 (μM)” value is listed as “++ (++ means 200 nM-1000 nM)”. For the molecule `CC1=NN(c2nc(NC3CCC(F)(F)CC3)cc(N3CCOCC3)n2)CC1` [IN11196-041-P1, N-(4,4-difluorocyclohexyl)-2-(3-methyl-4,5-dihydro-1H-pyrazol-1-yl)-6-morpholinopyrimidin-4-amine], the “SC100 (μM)” value is given as “+ (+ means >1 uM)”. `COc1c(NC2CCC(F)(F)CC2)nc(-c2nc(C)cs2)n(CC#N)c1=O` [IN11196-065-P1]: the “SC100 (μM)” value was “+ (+ means >1 uM)”. On to `Cc1csc(-c2nc(NC3CCC(F)(F)CC3)cc(-c3ccccn3)n2)n1` [IN11196-080-P1], for which the “SC100 (μM)” value is reported as “+ (+ means >1 uM)”. Take `Cc1ccc(-c2nc(NC3CCC(F)(F)CC3)cc(N3CCOCC3)n2)[nH]1` [IN11196-081-P1, N-(4,4-difluorocyclohexyl)-2-(5-methyl-1H-pyrrol-2-yl)-6-morpholino pyrimidin-4-amine]: the “SC100 (μM)” value is “+ (+ means >1 uM)”.

In the case of `Cc1cc(NC2CCC(F)(F)CC2)nc(-n2cc3c(n2)CCC3)n1` [IN11216-001-P1], the “SC100 (μM)” value is “+ (+ means >1 uM)”. Take `CCOC(=O)c1cn(-c2nc(NC3CCC(F)(F)CC3)cc(N3CCOCC3)n2)nc1C` [IN11216-043-P1]: the “SC100 (μM)” value was “+ (+ means >1 uM)”. Consider `Cc1nn(-c2nc(NC3CCC(F)(F)CC3)cc(N3CCOCC3)n2)cc1F` [IN11216-050-P1], for which the “SC100 (μM)” value was “++ (++ means 200 nM-1000 nM)”.

With `Cc1cc(NC2CCC(F)(F)CC2)nc(-n2cc(-n3cc(F)c(C)n3)c(C)n2)n1` [IN11216-072-P1], the “SC100 (μM)” value is on record as “+ (+ means >1 uM)”.

Regarding `COc1nn(-c2nc(NC3CCC(F)(F)CC3)cc(N3CCOCC3)n2)cc1F` [IN11216-073-P1], the “SC100 (μM)” value is “+++ (+++ means <200 nM)”. `FC1(F)CCC(Nc2cc(N3CCCOCC3)nc(-n3ccc(C4CC4)n3)n2)CC1` [IN11217-003-P1, 2-(3-cyclopropyl-1H-pyrazol-1-yl)-N-(4,4-difluorocyclohexyl)-6-(1,4-oxazepan-4-yl)pyrimidin-4-amine]: the “SC100 (μM)” value was “++ (++ means 200 nM-1000 nM)”. With `Cc1ccn(-c2cc(COc3cccnn3)cc(NC3CCC(F)(F)CC3)n2)n1` [IN11217-056-P1, N-(4,4-difluorocyclohexyl)-6-(3-methyl-1H-pyrazol-1-yl)-4-((pyridazin-3-yloxy)methyl)pyridin-2-amine] the entry was “++ (++ means 200 nM-1000 nM)”; with `OC(c1cc(NC2CCC(F)(F)CC2)nc(-n2ccc(C3CC3)n2)n1)C(F)(F)F` (centres unmarked) [IN11217-068-P1, 1-(2-(3-cyclopropyl-1H-pyrazol-1-yl)-6-((4,4-difluorocyclohexyl)amino)pyrimidin-4-yl)-2,2,2-trifluoroethan-1-ol], “+ (+ means >1 uM)”. As for `CCOCCc1cc(NC2CCC(F)(F)CC2)nc(-n2ccc(C3CC3)n2)n1` [IN11217-069-P1, 2-(3-cyclopropyl-1H-pyrazol-1-yl)-N-(4,4-difluorocyclohexyl)-6-(2-ethoxyethyl)pyrimidin-4-amine], the “SC100 (μM)” value is listed as “+ (+ means >1 uM)”.

As for `COc1cc(C)n(-c2nc(NC3CCC(F)(F)CC3)cc(N3CCOCC3)n2)n1` [IN11217-088-P1], the “SC100 (μM)” value is “+ (+ means >1 uM)”. In the case of `CC(=O)N1CCC(Oc2cc(NC3CCC(F)(F)CC3)nc(-n3ccc(C)n3)c2)CC1` [IN11218-025-P1, 1-(4-((2-((4,4-difluorocyclohexyl)amino)-6-(3-methyl-1H-pyrazol-1-yl)pyridin-4-yl)oxy)piperidin-1-yl)ethan-1-one], the “SC100 (μM)” value is recorded as “++ (++ means 200 nM-1000 nM)”.

As for `Cc1cc(NC2CCC(F)(F)CC2)nc(-n2ccc(C3(N)CC3)n2)n1` [IN11218-026-P1, 2-(3-(1-aminocyclopropyl)-1H-pyrazol-1-yl)-N-(4,4-difluorocyclohexyl)-6-methylpyrimidin-4-amine hydrogen chloride], the “SC100 (μM)” value is “+ (+ means >1 uM)”. As for `Cc1csc(-c2nc(NC3CCC(F)(F)CC3)cc(-c3ccccc3)n2)n1` [IN11218-030-P1], the “SC100 (μM)” value is “++ (++ means 200 nM-1000 nM)”.

In the case of `Cc1csc(-c2nc(NC3CCC(F)(F)CC3)cc(C(C)(C)C)n2)n1` [IN11220-039-P1, 6-(tert-butyl)-N-(4,4-difluorocyclohexyl)-2-(4-methylthiazol-2-yl)pyrimidin-4-amine], the “SC100 (μM)” value is listed as “++ (++ means 200 nM-1000 nM)”. Turning to `Cc1ccnn1-c1nc(NC2CCC(F)(F)CC2)cc(N2CCOCC2)n1` [IN11237-056-P1], the “SC100 (μM)” value is recorded as “+ (+ means >1 uM)”.

As to `CCOC(=O)c1cnc(-c2nc(C)cs2)nc1NC1CCC(F)(F)CC1` [IN11238-035-P1, ethyl 4-((4,4-difluorocyclohexyl)amino)-2-(4-methylthiazol-2-yl)pyrimidine-5-carboxylate], the “SC100 (μM)” value was “+ (+ means >1 uM)”. The entry for `Cc1csc(-c2ncc(CO)c(NC3CCC(F)(F)CC3)n2)n1` [IN11238-040-P1, (4-((4,4-difluorocyclohexyl)amino)-2-(4-methylthiazol-2-yl)pyrimidin-5-yl) methanol] is “+ (+ means >1 uM)”.

Regarding `COCc1cnc(-c2nc(C)cs2)nc1NC1CCC(F)(F)CC1` [IN11238-046-P1], the “SC100 (μM)” value is “+ (+ means >1 uM)”.
